Assay results reported in patent US20090275515A1, “2-HYDROXY-2-PHENYLTHIOPHENYLPROPIONAMIDES AS ANDROGEN RECEPTOR MODULATORS” (priority 2006, published 2009).

Assay: biochemical assays (not further specified)
Conditions: compound coupled from the second-peak acid 5-4 (RT=21 min)

## O=C(NCc1cc(C(F)(F)F)ccn1)[C@](O)(c1ccccc1)C(F)(F)C(F)(F)F [Example 7, (2R)-3,3,4,4,4-Pentafluoro-2-hydroxy-2-phenyl-N-(4-trifluoromethyl-pyridin-2-ylmethyl)-butyramide]
  activity in the biochemical assays: active
